US10173991B2, “Sulfone amide linked benzothiazole inhibitors of endothelial lipase” (BRISTOL-MYERS SQUIBB COMPANY, priority 2014, dated 2019)

Target: Endothelial lipase (EL) (Homo sapiens (Human), UniProt Q9Y5X9)
Assay: Endothelial lipase (EL) enzymatic assay with fluorescent substrate A10070 in DMPG vesicles
Format: biochemical
Summary of the method: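 Substrate A10070 sits in sonicated DMPG vesicles at 0.11 mole fraction. Lipase and compound preincubated 30 min, 37° C, in HEPES pH 8.0 buffer with CaCl2.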

Sequence of Endothelial lipase (EL) (Q9Y5X9 21-500): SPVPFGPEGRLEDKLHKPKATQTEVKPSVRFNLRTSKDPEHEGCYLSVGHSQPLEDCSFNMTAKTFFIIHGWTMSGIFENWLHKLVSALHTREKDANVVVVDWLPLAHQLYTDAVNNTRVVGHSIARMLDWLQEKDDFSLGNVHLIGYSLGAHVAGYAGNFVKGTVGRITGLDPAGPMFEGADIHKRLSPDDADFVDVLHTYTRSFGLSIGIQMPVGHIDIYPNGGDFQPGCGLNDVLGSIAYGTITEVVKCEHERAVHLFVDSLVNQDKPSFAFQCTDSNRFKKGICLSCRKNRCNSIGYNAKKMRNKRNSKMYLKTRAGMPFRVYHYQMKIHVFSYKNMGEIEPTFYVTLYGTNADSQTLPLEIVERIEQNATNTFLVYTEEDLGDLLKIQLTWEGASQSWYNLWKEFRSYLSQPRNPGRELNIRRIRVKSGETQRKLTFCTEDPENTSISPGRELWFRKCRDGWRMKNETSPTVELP

SMILES | IC50
COCCS(=O)(=O)C(C(=O)NCC(=O)NC1CC1)c1nc2ccc(-c3ccn(C)c(=O)c3)cc2s1 (centres unmarked) [Example 316, N-[(cyclopropyl-carbamoyl)methyl]-2-(2-methoxyethane-sulfonyl)-2-[6-(1-methyl-2-oxo-1,2-dihydropyridin-4-yl)-1,3-benzothiazol-2-yl]acetamide] | 13 nM
COCCS(=O)(=O)C(C(=O)NCC(=O)NC1CC1)c1nc2ccc(-c3cc(C)nn3C)cc2s1 (centres unmarked) [Example 317, N-[(cyclopropyl-carbamoyl)methyl]-2-[6-(1,3-dimethyl-1H-pyrazol-5-yl)-1,3-benzothiazol-2-yl]-2-(2-methoxyethane-sulfonyl)acetamide] | 4 nM
COCCS(=O)(=O)C(C(=O)NCC(=O)NC1CC1)c1nc2ccc(-c3cccnc3F)cc2s1 (centres unmarked) [Example 318, N-[(cyclopropyl-carbamoyl)methyl]-2-[6-(2-fluoropyridin-3-yl)-1,3-benzothiazol-2-yl]-2-(2-methoxyethane-sulfonyl)acetamide] | 7 nM
Cc1cc(F)ncc1-c1cc2sc(C(C(=O)NCC(=O)NC3CC3)S(C)(=O)=O)nc2cc1F (centres unmarked) [Example 319, N-[(cyclopropyl-carbamoyl)methyl]-2-[5-fluoro-6-(6-fluoro-4-methylpyridin-3-yl)-1,3-benzothiazol-2-yl]-2-methanesulfonyl-acetamide] | 15 nM
CS(=O)(=O)C(C(=O)NCC(=O)NC1CC1)c1nc2cc(F)c(-c3ccnc(F)c3)cc2s1 (centres unmarked) [Example 321, N-[(cyclopropyl-carbamoyl)methyl]-2-[5-fluoro-6-(2-fluoropyridin-4-yl)-1,3-benzothiazol-2-yl]-2-methanesulfonyl-acetamide] | 14 nM
COc1ncccc1-c1cc2sc(C(C(=O)NCC(=O)NC3CC3)S(C)(=O)=O)nc2cc1F (centres unmarked) [Example 322, N-[(cyclopropyl-carbamoyl)methyl]-2-[5-fluoro-6-(2-methoxypyridin-3-yl)-1,3-benzothiazol-2-yl]-2-methanesulfonyl-acetamide] | 5 nM
CS(=O)(=O)C(C(=O)NCC(=O)NC1CC1)c1nc2cc(F)c(-c3cncc(F)c3)cc2s1 (centres unmarked) [Example 323, N-[(cyclopropyl-carbamoyl)methyl]-2-[5-fluoro-6-(5-fluoropyridin-3-yl)-1,3-benzothiazol-2-yl]-2-methanesulfonyl-acetamide] | 23 nM
COc1cncc(-c2cc3sc(C(C(=O)NCC(=O)NC4CC4)S(C)(=O)=O)nc3cc2F)c1 (centres unmarked) [Example 324, N-[(cyclopropyl-carbamoyl)methyl]-2-[5-fluoro-6-(5-methoxypyridin-3-yl)-1,3-benzothiazol-2-yl]-2-methanesulfonyl-acetamide] | 15 nM
CS(=O)(=O)C(C(=O)NCC(=O)NC1CC1)c1nc2cc(F)c(-c3ccnc(C(F)(F)F)c3)cc2s1 (centres unmarked) [Example 325, N-[(cyclopropyl-carbamoyl)methyl]-2-{5-fluoro-6-[2-(trifluoromethyl)pyridin-4-yl]-1,3-benzothiazol-2-yl}-2-methanesulfonyl-acetamide] | 15 nM
CS(=O)(=O)C(C(=O)NCC(=O)NC1CC1)c1nc2cc(F)c(-c3cccnc3C(F)(F)F)cc2s1 (centres unmarked) [Example 326, N-[(cyclopropyl-carbamoyl)methyl]-2-{5-fluoro-6-[2-(trifluoromethyl)pyridin-3-yl]-1,3-benzothiazol-2-yl}-2-methanesulfonyl-acetamide] | 65 nM
CS(=O)(=O)C(C(=O)NCC(=O)NC1CC1)c1nc2cc(F)c(-c3cccc(C(N)=O)c3)cc2s1 (centres unmarked) [Example 327, 3-[2-({[(cyclopropyl-carbamoyl)methyl]carbamoyl} (methanesulfonyl)methyl)-5-fluoro-1,3-benzothiazol-6-yl]benzamide] | 19 nM
CS(=O)(=O)C(C(=O)NCC(=O)NC1CC1)c1nc2cc(F)c(-c3ccc(C(N)=O)c(Cl)c3)cc2s1 (centres unmarked) [Example 328, 2-chloro-4-[2-({[(cyclopropyl-carbamoyl)methyl]carbamoyl} (methanesulfonyl)methyl)-5-fluoro-1,3-benzothiazol-6-yl]benzamide] | 22 nM
COCCS(=O)(=O)C(C(=O)NCC(=O)NC1CC1)c1nc2ccc(-c3ccc(C(N)=O)cc3)cc2s1 (centres unmarked) [Example 329, 4-[2-({[(cyclopropyl-carbamoyl)methyl]carbamoyl}(2-methoxyethane-sulfonyl)methyl)-1,3-benzothiazol-6-yl]benzamide] | 46 nM
CS(=O)(=O)C(C(=O)NCC(=O)NC1CC1)c1nc2cc(F)c(-c3ccc(C(N)=O)cc3)cc2s1 (centres unmarked) [Example 331, 4-[2-({[(cyclopropyl-carbamoyl)methyl]carbamoyl} (methanesulfonyl)methyl)-5-fluoro-1,3-benzothiazol-6-yl]benzamide] | 4 nM
COCCS(=O)(=O)C(C(=O)NCC(=O)NC1CC1)c1nc2cc(-c3ccc(CNC(C)=O)cc3)ccc2s1 (centres unmarked) [Example 332, N-[(cyclopropyl-carbamoyl)methyl]-2-{5-[4-(acetamidomethyl)phenyl]-1,3-benzothiazol-2-yl}-2-(2-methoxyethane-sulfonyl)acetamide] | 10 nM
CS(=O)(=O)C(C(=O)NCC(=O)NC1CC1)c1nc2cc(-c3ccc(F)nc3)ccc2s1 (centres unmarked) [Example 333, N-[(cyclopropyl-carbamoyl)methyl]-2-[5-(6-fluoropyridin-3-yl)-1,3-benzothiazol-2-yl]-2-methanesulfonyl-acetamide] | 13 nM
COCCNC(=O)c1ccc(-c2ccc3sc(C(C(=O)NCC(=O)NC4CC4)S(=O)(=O)CCOC)nc3c2)cc1 (centres unmarked) [Example 334, 4-[2-({[(cyclopropyl-carbamoyl)methyl]carbamoyl}(2-methoxyethane-sulfonyl)methyl)-1,3-benzothiazol-5-yl]-N-(2-methoxyethyl) benzamide] | 15 nM
COCCS(=O)(=O)C(C(=O)NCC(=O)NC1CC1)c1nc2cc(-c3cncnc3)ccc2s1 (centres unmarked) [Example 335, N-[(cyclopropyl-carbamoyl)methyl]-2-(2-methoxyethane-sulfonyl)-2-[5-(pyrimidin-5-yl)-1,3-benzothiazol-2-yl]acetamide] | 16 nM
COCCS(=O)(=O)C(C(=O)NCC(=O)NC1CC1)c1nc2cc(-c3ccn(C)c(=O)c3)ccc2s1 (centres unmarked) [Example 336, N-[(cyclopropyl-carbamoyl)methyl]-2-(2-methoxyethane-sulfonyl)-2-[5-(1-methyl-2-oxo-1,2-dihydropyridin-4-yl)-1,3-benzothiazol-2-yl]acetamide] | 21 nM
COCCS(=O)(=O)C(C(=O)NCC(=O)NC1CC1)c1nc2cc(-c3ccc(C(=O)N4CCOCC4)cc3)ccc2s1 (centres unmarked) [Example 337, N-[(cyclopropyl-carbamoyl)methyl]-2-(2-methoxyethane-sulfonyl)-2-{5-[4-(morpholine-4-arbonyl)phenyl]-1,3-benzothiazol-2-yl}acetamide] | 38 nM
COCCS(=O)(=O)C(C(=O)NCC(=O)NC1CC1)c1nc2cc(-c3ccc(COC)cc3)ccc2s1 (centres unmarked) [Example 338, N-[(cyclopropyl-carbamoyl)methyl]-2-(2-methoxyethane-sulfonyl)-2-{5-[4-(methoxymethyl)phenyl]-1,3-benzothiazol-2-yl}acetamide] | 42 nM
COCCS(=O)(=O)C(C(=O)NCC(=O)NC1CC1)c1nc2cc(-c3ccccc3)ccc2s1 (centres unmarked) [Example 339, N-[(cyclopropyl-carbamoyl)methyl]-2-(2-methoxyethane-sulfonyl)-2-(5-phenyl-1,3-benzothiazol-2-yl)acetamide] | 215 nM
COCCS(=O)(=O)C(C(=O)NCC(=O)NC1CC1)c1nc2ccc(-c3ccc4c(c3)CNC4=O)cc2s1 (centres unmarked) [Example 340, N-[(cyclopropyl-carbamoyl)methyl]-2-(2-methoxyethane-sulfonyl)-2-[6-(1-oxo-2,3-dihydro-1H-isoindol-5-yl)-1,3-benzothiazol-2-yl]acetamide] | 9 nM
COCCS(=O)(=O)C(C(=O)NCC(=O)NC1CC1)c1nc2ccc(-c3ccc4c(c3)COC4=O)cc2s1 (centres unmarked) [Example 341, N-[(cyclopropyl-carbamoyl)methyl]-2-(2-methoxyethane-sulfonyl)-2-[6-(1-oxo-1,3-dihydro-2-benzofuran-5-yl)-1,3-benzothiazol-2-yl]acetamide] | 11 nM
COCCS(=O)(=O)C(C(=O)NCC(=O)NC1CC1)c1nc2cc(-c3ccn(C)c(=O)c3)c(F)cc2s1 (centres unmarked) [Example 342, N-[(cyclopropyl-carbamoyl)methyl]-2-[6-fluoro-5-(1-methyl-2-oxo-1,2-dihydropyridin-4-yl)-1,3-benzothiazol-2-yl]-2-(2-methoxyethane-sulfonyl)acetamide] | 23 nM
COCCS(=O)(=O)C(C(=O)NCC(=O)NC1CC1)c1nc2ccc(-c3ccnc(OC)c3F)cc2s1 (centres unmarked) [Example 343, N-[(cyclopropyl-carbamoyl)methyl]-2-[6-(3-fluoro-2-methoxypyridin-4-yl)-1,3-benzothiazol-2-yl]-2-(2-methoxyethane-sulfonyl)acetamide] | 48 nM
COCCS(=O)(=O)C(C(=O)NCC(=O)NC1CC1)c1nc2ccc(-c3ccc4c(c3)C(=O)NC4)cc2s1 (centres unmarked) [Example 344, N-[(cyclopropyl-carbamoyl)methyl]-2-(2-methoxyethane-sulfonyl)-2-[6-(3-oxo-2,3-dihydro-1H-isoindol-5-yl)-1,3-benzothiazol-2-yl]acetamide] | 98 nM
COCCS(=O)(=O)C(C(=O)NCC(=O)NC1CC1)c1nc2ccc(-c3cnc(Cl)n3C)cc2s1 (centres unmarked) [Example 345, 2-[6-(2-chloro-1-methyl-1H-imidazol-5-yl)-1,3-benzothiazol-2-yl]-N-[(cyclopropyl-carbamoyl)methyl]-2-(2-methoxyethane-sulfonyl)acetamide] | 135 nM
COCCS(=O)(=O)C(C(=O)NCC(=O)NC1CC1)c1nc2cc(-c3cnc(C)nc3)c(F)cc2s1 (centres unmarked) [Example 346, N-[(cyclopropyl-carbamoyl)methyl]-2-[6-fluoro-5-(2-methylpyrimidin-5-yl)-1,3-benzothiazol-2-yl]-2-(2-methoxyethane-sulfonyl)acetamide] | 6 nM
